Test results from patent publication US20030220524A1, “Sulfur containing compounds” (priority 2000, published 2003).
Values joined by “and” are separate entries in the source; they are usually repeats but may differ in a detail not shown here. Equal entries are not always repeated. Where two headings read alike, the source gives them in different places.

What was measured:
[1] = system: Normal bone marrow (mononucleated, T-cell depleted); test: MTT assay; type: cell-based; settings: Normal bone marrow, 48 h, read-out: MTT50
Protocol: (§1) All cell lines were assayed as asynchronously growing cells. Leukemic cell lines, OCI-AML-2, OCI-AML-3 (referred to hereafter as AML-2 and AML-3, respectively), NB-4, KK, B1, G2, and W1 were cultured in alpha-minimal essential medium (α-MEM) (Princess Margaret Hospital Media Services) supplemented with 10% fetal bovine serum (FBS) (Sigma, St. Louis, Mo.). Non-transformed, diploid fibroblast lines WI38 and IMR90, were cultured in α-MEM and MEM F-15, respectively supplemented with 10% FBS. Media for IMR90 cells was also supplemented with 1.5 g/L bicarbonate and 1 mM pyruvate. Breast tumour cell lines, MDA-231, SK-BR-3, MCF-7, ZR-751, and melanoma tumour cell lines, WM9, WM983, WM793, 1232, were grown in α-MEM supplemented with 10% fetal bovine serum. Prostate tumour cell lines, DU145 and PC-3, were grown in RPMI 1640 media supplemented with 10% FBS. All cell lines were cultured in the presence of penicillin/streptomycin. Mononucleated cells were isolated from normal bone marrow using Ficoll hypaque and then T-cell depleted. T-cell depletion was performed by incubating the mononucleated bone marrow cells in α-MEM at a concentration of 2×10^7 cells/mL with 10% absor FBS and 10% (v/v) sheep red blood cells for 4 to 16 h. Absor FBS was prepared beforehand by heating FBS at 56° C. for 1 h, incubating with sheep red blood cells at 0.5% (v/v) for 1 h and then filtering the FBS with a […]. The T-cell depleted, mononucleated cells were recovered using Ficoll hypaque and were maintained in α-MEM supplemented with 20% FBS and 10% 5637 ? nditioned media. 5637 conditioned media ? s previously harvested from confluent 5637 cells after a 3 day incubation. Normal bone marrow from bone marrow transplant donor was collected following informed consent according to institutional guidelines.
(§2) Approximately 20 mg of each compound was dissolved in 5 mL of ACS grade acetone (Sigma) using a 5 mL volumetric flask. Stock solutions of the compounds were stored in the dark at −20° C. Compounds were diluted prior to each experiment.
(§3) Adherent cells were seeded at 67×10^3 cells/mL in a 96 well plate (Falcon, Mississauga, Ontario) the day prior to exposure to compound. Suspension cells were seeded at 27×10^4 cells/mL in a 96 well plate the day of exposure to compound. Mononucleated, T-cell depleted normal bone marrow cells were seeded at 67×10^4 cells/mL in a 96 well plate the day of exposure to compound. Compounds and solvent control were added to cells and assayed in triplicate or sextuplet. Following 48 h of incubation at 37° C. with 5% CO2, 40 μL of a 5 mg/mL solution of 3-[4,5-dimethylthiazol-2-yl]-2,5-diphenyltetrazolium bromide (MTT) substrate (Sigma) in Dulbecco's phosphate-buffered saline (D-PBS) was added. After 4 h of incubation at 37° C. with 5% CO2, the resulting violet formazan precipitate was solubilized by the addition of 80 μL of a 0.01 M HCI, 10% sodium dodecyl sulfate (SDS; Sigma) solution overnight at 37° C. with 5% CO2. The plates were then analyzed using the BioRad Benchmark Microplate Reader (BioRad Laboratories, Hercules, Calif.) at 570 nm to determine the optical density of the samples. MTT data was analyzed using Prism 3.0 (GraphPad Software, Inc., San Diego, Calif.) by the Chou-Talalay method. MTT graphs shown are a representative experiment.
(§4) Adherent cells were seeded at 67×10^3 cells/mL in a 96 well plate (Falcon, Mississauga, Ontario) the day prior to exposure to compound. Suspension cells were seeded at 27×10^4 cells/mL in a 96 well plate the day of exposure to compound. Mononucleated, T-cell depleted normal bone marrow cells were seeded at 67×10^4 cells/mL in a 96 well plate the day of exposure to compound. Compounds and solvent control were added to cells and assayed in triplicate or sextuplet. […]

[2] = system: AML-3 leukemic cell line; test: MTT assay; type: cell-based, human
Protocol: as §1, §2, §3, §4

[3] = system: G2 leukemic cell line; test: MTT assay; type: cell-based, human; settings: 48 h, read-out: MTT50
Protocol: as §1, §2, §3, §4

[4] = system: KK leukemic cell line; test: MTT assay; type: cell-based, human; settings: KK, 48 h, read-out: MTT50
Protocol: as §1, §2, §3, §4

[5] = system: WI38 non-transformed diploid fibroblasts; test: MTT assay; type: cell-based, human; settings: for IC50: WI38 (normal), 48 h, read-out: MTT50
Protocol: as §1, §2, §3, §4

[6] = system: B1 leukemic cell line; test: MTT assay; type: cell-based, human; settings: B1, 48 h, read-out: MTT50
Protocol: as §1, §2, §3, §4

[7] = system: NB-4 leukemic cell line; test: MTT assay; type: cell-based, human; settings: NB-4, 48 h, read-out: MTT50
Protocol: as §1, §2, §3, §4

[8] = system: Aspergillus niger; test: Antifungal paper disk test, diameter of clear zone; type: cell-based; settings: for zone of inhibition at 100 µg/disc: 100 μg/disk, read-out: Diameter (mm) of clear Zone A. niger
Protocol: (§5) Sulfur compounds were tested for antifungal activity against pure cultures of Aspergillus niger and Aspergillus flavus supplied by Ward's Natural Science Ltd (St. Catharines, Ontario, Canada). They were maintained on Sabouraud Dextrose Agar.
(§6) For the test, 6 agar plugs (5 mm diameter) were cut from a 5-8 day old colony and homogenized in distilled, sterilized water (2 ml). A portion of this suspension (0.5 ml) was transferred aseptically to a Petri plate with Sabouraud Dextrose Agar (15 ml) and spread evenly over the entire surface. […] Each test compound was applied to the disks as a solution (50 mg compound/10 ml acetone). Control disks were treated with neat acetone (20 μl). Test plates with fungal homogenates and disks were incubated at 18-20° C. for 2 days. For each test four replicate plates were used. The diameter of the clear zone surrounding the disk was taken as the indicator of antifungal activity.

[9] = system: Aspergillus flavus; test: Antifungal paper disk test, diameter of clear zone; type: cell-based; settings: for zone of inhibition at 100 µg/disc: 100 μg/disk, read-out: Diameter (mm) of clear Zone A. flavus
Protocol: as §5, §6

[10] = system: W1 leukemic cell line; test: MTT assay; type: cell-based, human; settings: 48 h, read-out: MTT50
Protocol: as §1, §2, §3, §4

[11] = system: Aspergillus niger and Aspergillus flavus; test: Antifungal activity; type: cell-based; settings: in words; 10 μg/disk
[12] = system: AML-3 leukemic cell line; test: Fixed propidium iodide staining, flow cytometry; type: cell-based, human; settings: dose 129.6 uM (ug/mL), 48 h
Protocol: (§7) Adherent cell lines were plated at 35×10^4 cells/60 cm^2 dish the day before exposure to compound. Suspension cells were seeded at 25×10^4 cells/mL in a 6 well dish (Falcon) the day of exposure to compound. Mononucleated, T-cell depleted normal bone marrow cells were seeded at 50×10^4 cells/mL in a 6 well dish the day of exposure to compound. Cells were exposed to solvent control or approximate MTT50 and MTT30 concentrations of the compound. After 48 h of exposure to the compound, cells were harvested, fixed in 80% ethanol for 1 h on ice and labeled with 50 μg/mL propidium iodide (Sigma). Approximately 10^6 cells were analyzed using a XL-MCL flow cytometer (Coulter Corporation, Miami, Fla.) and a FACScalibar cytometer (Becton Dickinson, San Jose, Calif.). Profiles shown are a representative.
as §7, with “cm2” for “cm^2”, “concentrations.” for “concentrations of the compound.”, “representative. Cell viability counts and Pi staining were performed as previously described (Dimitroulakos, J, Nohynek, D, Backway, K L, Hedley, D W, Yeger, H, Freedman, M H, Minden, M D and Penn, L Z: Increased sensitivity of acute myeloid leukemias to lovastatin-induced apoptosis: A potential therapeutic approach. Blood 93: 1308-18, 1999).” for “representative.”

[13] = system: KK leukemic cell line; test: Fixed propidium iodide staining, flow cytometry; type: cell-based, human; settings: dose 129.6 uM (ug/mL), 48 h
Protocol: as §7
as §7, with “cm2” for “cm^2”, “concentrations.” for “concentrations of the compound.”, “representative. Cell viability counts and Pi staining were performed as previously described (Dimitroulakos, J, Nohynek, D, Backway, K L, Hedley, D W, Yeger, H, Freedman, M H, Minden, M D and Penn, L Z: Increased sensitivity of acute myeloid leukemias to lovastatin-induced apoptosis: A potential therapeutic approach. Blood 93: 1308-18, 1999).” for “representative.”

[14] = system: Aspergillus niger and Aspergillus flavus; test: Antifungal activity; type: cell-based; settings: in words; dose not given
Protocol: as §5
For the test, 6 agar plugs (5 mm diameter) were cut from a 5-8 day old colony and homogenized in distilled, sterilized water (2 ml). A portion of this suspension (0.5 ml) was transferred aseptically to a Petri plate with Sabouraud Dextrose Agar (15 ml) and spread evenly over the entire surface. Each plate was supplied with four evenly spaced paper disks (7 mm, Whatman Number 1 filter paper) containing the test compound (0, 25, 50 and 100 μg respectively). Each test compound was applied to the disks as a solution (50 mg compound/10 ml acetone). Control disks were treated with neat acetone (20 μl). Test plates with fungal homogenates and disks were incubated at 18-20° C. for 2 days. For each test four replicate plates were used. The diameter of the clear zone surrounding the disk was taken as the indicator of antifungal activity.

[15] = system: Aspergillus flavus; test: Antifungal paper disk test, diameter of clear zone; type: cell-based; settings: 0.25 μg/disk; Appl'n Solvent DMSO
[16] = system: Aspergillus niger; test: Antifungal paper disk test, diameter of clear zone; type: cell-based; settings: 0.25 μg/disk; Appl'n Solvent DMSO
[17] = Homo sapiens, AML3, 48 h, AML-3, read-out: MTT50
[18] = 0.25 μg/disk, Appl'n Solvent Acetone

Compound: CCCCCSSCS(C)(=O)=O [K]
- IC50 [1]: 22 µM
- IC50 ([2]; AML-3, 48 h, read-out: MTT50): 4.6 µM
- IC50 [3]: 6.61 µM and 5.8 µM
- IC50 [4]: 6.6 µM
- IC50 [5]: 19 µM
- IC50 [6]: 6.07 µM
- IC50 [7]: 6.36 µM and 7.8 µM

Compound: CSSCCCS(C)(=O)=O [CH3SO2CH2CH2CH2SSCH3, 2,3,7-trithiaoctane 7,7-dioxide]
- zone of inhibition at 100 µg/disc ([8]; Aspergillus niger, acetone): 0 mm
- zone of inhibition at 100 µg/disc ([9]; Aspergillus flavus, acetone): 0 mm
- melting point: 34.8 to 35.3 °C

Compound: CS(=O)(=O)Sc1ccccc1 [L, Phenyl Methanethiosulfonate]
- Diameter (mm) of clear Zone A. niger ([8]; 25 μg/disk, acetone): 0 mm
- Diameter (mm) of clear Zone A. flavus ([9]; 25 μg/disk, acetone): 3.7 mm
- IC50 [1]: 44.2 µM
- IC50 ([2]; AML-3, 48 h, read-out: MTT50): 7.46 µM
- IC50 [3]: 3.8 µM
- IC50 [4]: 6.3 µM
- IC50 [10]: 7.26 µM
- IC50 [6]: 6.34 µM

Compound: CSSc1ccccc1[N+](=O)[O-] [o-O2N(C6H4)SSCH3, methyl o-nitrophenyl disulphide]
- zone of inhibition at 10 µg/disc ([8]; Aspergillus niger, 10 μg/disk, acetone): 2.8 mm
- zone of inhibition at 10 µg/disc ([9]; Aspergillus flavus, 10 μg/disk, acetone): 1.9 mm
- Antifungal activity / fungitoxicity [11]: pronounced toxicity

Compound: CSCSCSC [J, 2,4,6-trithiaheptane]
- % pre-G1 (Fixed PI) [12]: 0.2%
- % pre-G1 (Fixed PI) [13]: 2.6%
- zone of inhibition at 100 µg/disc ([8]; Aspergillus niger, acetone): 0 mm
- zone of inhibition at 100 µg/disc ([9]; Aspergillus flavus, acetone): 0 mm
- IC50 ([1]; T-cell): > 162 µM
- Antifungal activity [14]: do not possess antiproliferative activity on either fungal or mammalian cells
- IC50 [2, 17]: > 162 µM
- IC50 ([4]; Homo sapiens): > 162 µM
- IC50 ([5]; Homo sapiens, WI-38, 48 h): > 162 µM
- Viability of non-transformed human WI38 fibroblasts following exposure ([5]; in words): not affected

Compound: C[C@@H]1[C@H](O)[C@@H](C)/C=C/C=C/C=C/C=C/C=C/C=C/C=C/[C@H](O[C@@H]2O[C@H](C)[C@@H](O)[C@H](N)[C@@H]2O)C[C@@H]2O[C@](O)(C[C@@H](O)C[C@@H](O)[C@H](O)CC[C@@H](O)C[C@@H](O)CC(=O)O[C@H]1C)C[C@H](O)[C@H]2C(=O)O [Amphotericin B, reference compound]
- Antifungal activity [14]: most potent of the 3 commercial antifungals tested
- Diameter (mm) of clear Zone A. flavus [15]: 4.1 mm
- Diameter (mm) of clear Zone A. niger [16]: 4.2 mm

Compound: COC(=O)CSSCC(=O)OC [O, dimethyl 3,4-dithiaadipate]
- zone of inhibition at 100 µg/disc ([8]; Aspergillus niger, acetone): 0 mm
- zone of inhibition at 100 µg/disc ([9]; Aspergillus flavus, acetone): 0 mm
- IC50 ([1]; T-cell): > 100 µM
- IC50 ([2]; AML-3, 48 h, read-out: MTT50): 44.1 µM
- IC50 [2, 17]: 55.8 µM
- IC50 ([4]; Homo sapiens): 96.9 µM
- IC50 ([5]; Homo sapiens, WI-38, 48 h): 73.9 µM
- IC50 ([6]; Homo sapiens): 57.4 µM
- IC50 ([7]; Homo sapiens): 62.9 µM

Compound: CCC(=O)OCSSCOC(=O)CC [(C2H5C(O)OCH2S)2, 2,3-dithiabutane-1,4-dipropionate]
- Diameter (mm) of clear Zone A. niger [8, 18]: 3.6 mm
- Diameter (mm) of clear Zone A. flavus [9, 18]: 6.7 mm
- Diameter (mm) of clear Zone A. flavus [15]: 6.1 mm
- Diameter (mm) of clear Zone A. niger [16]: 8.0 mm
